Molecules are shown by their SMILES.

The subject of assay [1] is WistarF/Han (WF) rats. Description: Response to novelty (open field test) after i.c.v. treatment. The class given is in vivo. How it is done: (§1) Animals. Male WistarF/Han (WF) rats (Central Animal Laboratory, Hannover Medical School, Hannover, Germany, see http://www.mh-hannover.de/institut/tierlabor/wf.htm for details), weighing 350-390g, were housed in a sound-proof, temperature controlled (24.0±0.5°C) room under specific pathogen free conditions with a 12/12h dark/light cycle (lights on at 07.00 with illumination level of 80 Lux). Food (Altromin lab chow pellets) and tap water were available ad libitum. Under ketamine/xylasine (100/5 mg/kg, i.p.) anesthesia, the rats were fixed in a Kopf stereotaxic frame and implanted with cannulae (Plastic One, Inc., Roanoke, VA, USA) above the lateral ventricle. All research and animal care procedures were approved by the Lower Saxony district government (Hannover, Germany) and followed principles described in the European Community's Council Directive of 24 November 1986 (86/609/EEC).
Surgery and i.c.v. application. For surgery, rats were anesthetized and prepared with i.c.v. cannulaes (coordinates: A:-0.7mm caudal, L:1.4mm lateral to bregma; and V:3.2mm ventral to the skull surface; tooth bar +3.0 above ear bars) using standard stereotaxic procedures as described in detail elsewhere (von Hörsten et al., 1998a,b,c). […]
Response to novelty (Open field test). […] Spontaneous activity during a single continuous test session of 15min was recorded using a video path analyzer system (E61-21 Video Path Analyser system, Coulboum instruments, PA, U.S.A.). […] Furthermore, the total incidence of fecal boli was counted after each session and the incidence and duration (sec) of grooming behavior was simultaneously recorded from a video monitor by a person blind to the treatment of the animals (von Hörsten et al., 1998c).
Statistical analysis. For statistical analysis, behavioral raw data from every test minute were analyzed by two-way analyses of variance (ANOVA) for repeated measures (factors: treatment and time as a repeated measurement). Data obtained as totals from a session were analyzed by one-way (factor: treatment) ANOVA. […]

The test system of assay [2] is WistarF/Han (WF) rats. Description: Elevated plus maze (EPM) test after i.c.v. treatment. The conditions noted are these: low dose (50pmol), Fig. 6. The class given is in vivo. As for the experimental part:
as §1, with “(86/609/EEC). […]” for “(86/609/EEC).”
Elevated plus maze (EPM) testing. […] The following parameters were calculated: Total numbers of arm entries (TA); entries to closed arms (CA); entries to open arms (OA); percentage frequency of entries to open arms (%OA: OAx100/TA); total trial duration (TT): 300s; duration of stay in closed arms (closed time; CLT); percentage share of CLT in total arms-stay duration (CLTx100/AT); duration of stay in open arms (open time; OT) and percentage share of OT in total arm-stay duration (%OT: OTx100/AT). […]

Take `CCC(C)C(N)C(=O)N1CCSC1` (stereo not shown) [isoleucyl thiazolidine]: the “dosage already effective on time spent close to the wall” value in assay [1] (Fig. 5) is given as 50 pmol. Also, in assay [1] (sum of four consecutive minutes of open field testing, Fig. 5), the “time spent close to the wall” value is recorded as “dose-dependent reduction”. For the same compound, the “activity in the open field (distance traveled)” value in assay [1] (wide range of dosages (0.05nmol, 5nmol, 500nmol), 60 min before test, Fig. 4) is given as “no effect”. Further, the “percentage of time spent on the open arms of the maze” value in assay [2] is given as “increased”.

(Values after patent EP1891948A1, “Treatment of neurological and neuropsychological disorders” (Probiodrug AG, priority 2000, dated 2002).)
